In ChEMBL document CHEMBL3286383, “4-Benzofuranyloxynicotinamide derivatives are novel potent and orally available TGR5 agonists” (Eur J Med Chem, 2014):

Tests used:
[1] = target: T1, G-protein coupled bile acid receptor 1 (Homo sapiens) (UniProt Q8TDU6); test: Agonist activity at human TGR5 expressed in HEK293 cells co-expressing CRE at 1 uM after 5.5 hrs by luciferase reporter gene assay; assay type: functional, cell-based
T1 sequence (whole entry): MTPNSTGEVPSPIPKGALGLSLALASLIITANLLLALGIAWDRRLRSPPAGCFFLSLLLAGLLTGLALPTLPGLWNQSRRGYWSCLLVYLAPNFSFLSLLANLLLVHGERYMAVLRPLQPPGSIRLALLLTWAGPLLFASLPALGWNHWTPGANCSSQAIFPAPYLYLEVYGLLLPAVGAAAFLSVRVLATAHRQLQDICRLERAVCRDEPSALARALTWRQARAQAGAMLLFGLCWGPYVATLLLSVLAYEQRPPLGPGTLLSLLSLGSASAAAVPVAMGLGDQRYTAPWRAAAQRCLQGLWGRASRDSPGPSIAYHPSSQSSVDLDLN

[2] = target: T2, G-protein coupled bile acid receptor 1 (Mus musculus, UniProt Q80SS6); test: Agonist activity at mouse TGR5 expressed in HEK293 cells co-expressing CRE after 5.5 hrs by luciferase reporter gene assay; assay type: functional, cell-based
T2 sequence (Q80SS6 whole entry): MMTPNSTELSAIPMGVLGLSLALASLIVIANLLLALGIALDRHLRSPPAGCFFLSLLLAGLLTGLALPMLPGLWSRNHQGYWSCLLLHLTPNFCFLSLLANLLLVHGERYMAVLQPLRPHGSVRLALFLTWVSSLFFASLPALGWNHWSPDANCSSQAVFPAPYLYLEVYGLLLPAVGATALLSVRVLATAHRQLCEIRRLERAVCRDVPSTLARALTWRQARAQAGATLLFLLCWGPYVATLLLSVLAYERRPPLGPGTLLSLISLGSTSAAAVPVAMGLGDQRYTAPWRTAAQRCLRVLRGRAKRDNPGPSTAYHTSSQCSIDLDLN

[3] = target: T3, G-protein coupled bile acid receptor 1 (Homo sapiens, UniProt Q8TDU6); test: Agonist activity at human TGR5 expressed in HEK293 cells co-expressing CRE after 5.5 hrs by luciferase reporter gene assay; assay type: functional, cell-based
T3 sequence (Q8TDU6 whole entry): T1 sequence (whole entry)

[4] = target: T3, G-protein coupled bile acid receptor 1; test: Agonist activity at human TGR5
[5] = Efflux ratio of permeability from apical to basolateral side over basolateral to apical side of human Caco2 cells up to 95 mins by LC-MS/MS analysis; settings: Caco-2
[6] = Apparent permeability of the compound from apical to basolateral side of human Caco2 cells up to 95 mins by LC-MS/MS analysis; settings: Caco-2
[7] = Apparent permeability of the compound from basolateral to apical side of human Caco2 cells up to 95 mins by LC-MS/MS analysis; settings: Caco-2
Nucleic Acid [8] = test: Ratio of drug level in ICR mouse bile at 50 mg/kg, po after 3 hrs to EC50 for mouse TGR5 expressed in HEK293 cells; assay type: organism-based; parameters: dose 50 mg/kg
Mus musculus [9] = test: Gallbladder toxicity in ICR mouse assessed as increase of gallbladder volume at 50 mg/kg, po after 3 hrs; assay type: organism-based; parameters: dose 50 mg/kg, route oral; settings: in vivo
[10] = Drug level in ICR mouse bile at 50 mg/kg, po after 3 hrs by LC-MS/MS analysis; assay type: ADME, organism-based; parameters: dose 50 mg/kg, route oral; settings: read-out: Drug uptake
[11] = Drug level in ICR mouse blood at 50 mg/kg, po after 3 hrs by LC-MS/MS analysis; assay type: ADME, organism-based; parameters: dose 50 mg/kg, route oral; settings: read-out: Drug uptake
Mus musculus [12] = test: Antidiabetic activity in oral glucose loaded ICR mouse assessed as reduction of AUC (0 to 120 mins) of blood glucose level at 50 mg/kg, po by oral glucose tolerance test; assay type: functional; parameters: scale not given: the % may be the effect or the level left
[13] = Ratio of plasma concentration in ICR mouse plasma at 50 mg/kg, po after 3 hrs to EC50 for mouse TGR5 expressed in HEK293 cells; assay type: ADME, organism-based; parameters: dose 50 mg/kg, route oral; settings: in vivo
Nucleic Acid [14] = test: Ratio of drug level in ICR mouse gallbladder at 50 mg/kg, po after 3 hrs to EC50 for mouse TGR5 expressed in HEK293 cells; assay type: organism-based; parameters: dose 50 mg/kg
[15] = Drug level in ICR mouse gallbladder at 50 mg/kg, po after 3 hrs by LC-MS/MS analysis; assay type: ADME, organism-based, Gall bladder; parameters: dose 50 mg/kg, route oral; settings: read-out: Drug uptake

Row | Compound | EC50 [2] | EC50 [3] | further results
1 | O=C(O)c1coc2cc(Cl)c(Oc3ccncc3C(=O)N3CCN(C4CC4)c4ccccc43)cc12 |  |  | Activity [1]: 38%
2 | O=C(c1cnccc1Oc1ccc2occc2c1)N1CCN(C2CC2)c2ccccc21 | 28 nM | 10.7 nM | 
3 | O=C(c1cnccc1Oc1cccc2cccnc12)N1CCN(C2CC2)c2ccccc21 |  | 178 nM | 
4 | CCOC(=O)c1oc2cc(Cl)c(Oc3ccncc3C(=O)N3CCN(C4CC4)c4ccccc43)cc2c1C |  | 38 nM | 
5 | O=C(c1cnccc1Oc1ccc2[nH]ccc2c1)N1CCN(C2CC2)c2ccccc21 |  | 1220 nM | 
6 | CC(=O)c1cccc(Oc2ccncc2C(=O)N2CCN(C3CC3)c3ccccc32)c1 |  |  | EC50 ([4]; read-out: EC50): 5.5 nM
7 | CCOC(=O)CNC(=O)CCc1coc2cc(Cl)c(Oc3ccncc3C(=O)N3CCN(C4CC4)c4ccccc43)cc12 |  | 119 nM | 
8 | Cc1c(CCC(=O)O)oc2ccc(Cl)c(Oc3ccncc3C(=O)N3CCN(C4CC4)c4ccccc43)c12 | 101 nM | 35 nM | 
9 | O=C(c1cnccc1Oc1ccc2ccccc2c1)N1CCN(C2CC2)c2ccccc21 |  | 41 nM | 
10 | O=C(c1cnccc1Oc1cccc2ncccc12)N1CCN(C2CC2)c2ccccc21 |  | 40 nM | 
11 | O=C(c1cnccc1Oc1ccc2ccoc2c1)N1CCN(C2CC2)c2ccccc21 | 43 nM | 25 nM | 
12 | CCOC(=O)CNC(=O)c1oc2cc(Cl)c(Oc3ccncc3C(=O)N3CCN(C4CC4)c4ccccc43)cc2c1C |  | 78 nM | 
13 | Cc1c(C(=O)O)oc2cc(Cl)c(Oc3ccncc3C(=O)N3CCN(C4CC4)c4ccccc43)cc12 |  | 63 nM | 
14 | O=C(c1cnccc1Oc1ccc2ncsc2c1)N1CCN(C2CC2)c2ccccc21 | 60 nM | 15 nM | 
15 | CC(=O)c1cc(C(=O)N2CCN(C3CC3)c3ccccc32)ccc1O |  |  | EC50 ([4]; read-out: EC50): 2.3 nM
16 | Cc1c(/C=C/C(=O)O)oc2ccc(Cl)c(Oc3ccncc3C(=O)N3CCN(C4CC4)c4ccccc43)c12 | 18 nM | 25 nM | 
17 | CCOC(=O)CNC(=O)CCc1oc2ccc(Cl)c(Oc3ccncc3C(=O)N3CCN(C4CC4)c4ccccc43)c2c1C | 85 nM | 30 nM | 
18 | O=C(O)CCc1coc2cc(Cl)c(Oc3ccncc3C(=O)N3CCN(C4CC4)c4ccccc43)cc12 |  | 675 nM | 
19 | CCOC(=O)CNC(=O)c1coc2cc(Cl)c(Oc3ccncc3C(=O)N3CCN(C4CC4)c4ccccc43)cc12 |  | 1400 nM | 
20 | O=C(O)Cc1coc2cc(Cl)c(Oc3ccncc3C(=O)N3CCN(C4CC4)c4ccccc43)cc12 |  | 1360 nM | 

Row | Compound | EC50 [2] | EC50 [3] | further results
21 | Cc1noc2cc(Oc3ccncc3C(=O)N3CCN(C4CC4)c4ccccc43)ccc12 |  | 240 nM | 
22 | O=C(c1cnccc1Oc1cc2ccoc2cc1Cl)N1CCN(C2CC2)c2ccccc21 | 10 nM | 1.4 nM | 
23 | CCOC(=O)Cc1coc2cc(Cl)c(Oc3ccncc3C(=O)N3CCN(C4CC4)c4ccccc43)cc12 | 38 nM | 5.2 nM | 
24 | O=C(c1cnccc1Oc1ccc2cc[nH]c2c1)N1CCN(C2CC2)c2ccccc21 |  | 162 nM | 
25 | CCOC(=O)c1coc2cc(Cl)c(Oc3ccncc3C(=O)N3CCN(C4CC4)c4ccccc43)cc12 | 39 nM | 1.7 nM | 
26 | Cc1coc2ccc(Oc3ccncc3C(=O)N3CCN(C4CC4)c4ccccc43)cc12 | 2.4 nM | 0.45 nM | 
27 | COC(=O)CCc1coc2cc(Cl)c(Oc3ccncc3C(=O)N3CCN(C4CC4)c4ccccc43)cc12 | 82 nM | 24 nM | 
28 | CCOC(=O)/C=C/c1oc2ccc(Cl)c(Oc3ccncc3C(=O)N3CCN(C4CC4)c4ccccc43)c2c1C | 16 nM | 8.9 nM | 
29 | O=C(c1cnccc1Oc1ccc2sccc2c1)N1CCN(C2CC2)c2ccccc21 | 52 nM | 16 nM | 
30 | Cc1noc2ccc(Oc3ccncc3C(=O)N3CCN(C4CC4)c4ccccc43)cc12 | 5.5 nM | 1.5 nM | 
31 | CCOC(=O)CNC(=O)Cc1coc2cc(Cl)c(Oc3ccncc3C(=O)N3CCN(C4CC4)c4ccccc43)cc12 |  | 520 nM | 
32 | CCOC(=O)CCc1oc2ccc(Cl)c(Oc3ccncc3C(=O)N3CCN(C4CC4)c4ccccc43)c2c1C | 72 nM | 18 nM | 
33 | O=C(c1cnccc1Oc1ccc(O)cc1)N1CCN(C2CC2)c2ccccc21 |  |  | EC50 [4]: Not Active
34 | O=C(c1cnccc1Oc1cccc2ccccc12)N1CCN(C2CC2)c2ccccc21 | 66 nM | 17 nM | 
35 | Cc1c(Br)oc2cc(Cl)c(Oc3ccncc3C(=O)N3CCN(C4CC4)c4ccccc43)cc12 | 66 nM | 7.7 nM | 
36 | O=C(c1cnccc1Oc1ccc2ncccc2c1)N1CCN(C2CC2)c2ccccc21 |  | 64 nM | 
37 | O=C(c1cnccc1Oc1ccc2cccnc2c1)N1CCN(C2CC2)c2ccccc21 |  | 59 nM | 
38 | CCOC(=O)CNC(=O)/C=C/c1oc2ccc(Cl)c(Oc3ccncc3C(=O)N3CCN(C4CC4)c4ccccc43)c2c1C | 6.1 nM | 8.5 nM | efflux ratio at 95 min [5]: 0.48; Papp A→B at 95 min [6]: 1.04 ×10⁻⁶ cm/s; Papp B→A at 95 min [7]: 0.5 ×10⁻⁶ cm/s
39 | Cc1coc2cc(Cl)c(Oc3ccncc3C(=O)N3CCN(C4CC4)c4ccccc43)cc12 | 0.92 nM | 0.28 nM | Ratio (Nucleic Acid [8]): 1030; Activity (Mus musculus [9]): 97%; efflux ratio at 95 min [5]: 0.71; concentration at 3 h [10]: 438 ng/mL; concentration at 3 h [11]: 65 ng/mL; Activity (Mus musculus [12]): 33%; Ratio [13]: 153; Ratio (Nucleic Acid [14]): 891; Papp A→B at 95 min [6]: 2.1 ×10⁻⁶ cm/s; concentration at 3 h [15]: 410 ng/mL; Papp B→A at 95 min [7]: 1.5 ×10⁻⁶ cm/s
40 | O=C(c1cnccc1Oc1cccc2[nH]ccc12)N1CCN(C2CC2)c2ccccc21 |  | 148 nM | 
